This note sets out measurements from patent publication US7662832B2, “Pyrrolo[2,3-c]pyridine derivatives and processes for the preparation thereof” (priority 2004, dated 2010).

Counter-ions that a name gives are not always drawn.

Chain of Proton Pump (H^+/K^+-ATPase) (P19156 2-1034 limits assumed): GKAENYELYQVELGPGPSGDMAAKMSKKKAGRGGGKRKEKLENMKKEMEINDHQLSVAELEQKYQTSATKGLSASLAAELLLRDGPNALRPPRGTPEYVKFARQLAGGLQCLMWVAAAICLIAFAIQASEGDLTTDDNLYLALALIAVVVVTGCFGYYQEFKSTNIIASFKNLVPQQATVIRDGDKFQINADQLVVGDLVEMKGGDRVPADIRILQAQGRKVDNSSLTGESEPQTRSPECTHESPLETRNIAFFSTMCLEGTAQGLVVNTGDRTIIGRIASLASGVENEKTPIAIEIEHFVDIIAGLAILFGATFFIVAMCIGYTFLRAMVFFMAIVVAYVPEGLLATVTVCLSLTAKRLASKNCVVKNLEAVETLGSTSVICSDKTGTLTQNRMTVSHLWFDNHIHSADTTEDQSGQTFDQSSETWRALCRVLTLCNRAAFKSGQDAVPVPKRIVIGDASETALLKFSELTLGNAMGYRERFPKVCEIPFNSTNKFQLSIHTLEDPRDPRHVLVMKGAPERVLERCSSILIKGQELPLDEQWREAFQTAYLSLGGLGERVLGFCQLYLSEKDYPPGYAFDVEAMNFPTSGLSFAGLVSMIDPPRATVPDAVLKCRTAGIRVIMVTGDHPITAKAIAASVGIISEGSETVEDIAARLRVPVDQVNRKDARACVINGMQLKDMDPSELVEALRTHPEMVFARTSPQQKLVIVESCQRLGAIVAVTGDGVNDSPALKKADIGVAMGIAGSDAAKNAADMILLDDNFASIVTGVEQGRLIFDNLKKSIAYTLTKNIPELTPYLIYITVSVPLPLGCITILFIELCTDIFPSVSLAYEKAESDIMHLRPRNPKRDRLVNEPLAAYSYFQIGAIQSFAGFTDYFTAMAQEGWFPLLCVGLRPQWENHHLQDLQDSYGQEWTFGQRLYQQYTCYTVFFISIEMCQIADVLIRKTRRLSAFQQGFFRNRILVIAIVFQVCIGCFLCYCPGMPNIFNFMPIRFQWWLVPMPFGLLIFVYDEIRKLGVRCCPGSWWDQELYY
Chain of Proton Pump (H^+/K^+-ATPase) (P18434 whole entry partner): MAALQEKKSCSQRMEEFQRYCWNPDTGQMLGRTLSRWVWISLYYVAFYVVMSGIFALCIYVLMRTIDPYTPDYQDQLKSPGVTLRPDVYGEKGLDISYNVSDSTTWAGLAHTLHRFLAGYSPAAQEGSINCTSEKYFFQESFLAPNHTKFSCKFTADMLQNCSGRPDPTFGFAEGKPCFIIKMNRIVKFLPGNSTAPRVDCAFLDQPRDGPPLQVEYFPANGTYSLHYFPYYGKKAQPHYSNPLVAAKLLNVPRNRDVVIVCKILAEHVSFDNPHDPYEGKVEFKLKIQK

This experiment concerns the target Proton Pump (H^+/K^+-ATPase) (Sus scrofa, UniProt P19156). The experiment can be described thus: Inhibitory effects on proton pump (H^+/K^+-ATPase) activity. To be noted: hog gastric vesicles; K^+ stimulated H^+/K^+-ATPase activity; 30 minutes at 37° C. Format: biochemical.
One may read the IC50 as the concentration that inhibits the measured activity by half. Read a low IC50 as greater potency in that assay. Compound `CC=CCn1c(C)c(C)c2ccnc(NCc3ccccc3)c21` [Example 183, 7-benzylamino-1-(but-2-enyl)-2,3-dimethyl-1H-pyrrolo[2,3-c]pyridine hydrochloride] gave an IC50 of 220 nM.

In the case of `C=CCn1c(C)c(C)c2ccnc(N3CCc4ccc(F)cc4C3C)c21` (centres unmarked) [Example 544, 2-(1-allyl-2,3-dimethyl-1H-pyrrolo[2,3-c]pyridin-7-yl)-7-fluoro-1-methyl-1,2,3,4-tetrahydroisoquinoline hydrochloride], inhibition was half-maximal at 22 nM (IC50).

For the compound `COCCn1c(C)c(C)c2ccnc(N3CCc4cc(F)ccc4C3C)c21` (centres unmarked) [Example 564, 6-fluoro-2-[1-(2-methoxyethyl)-2,3-dimethyl-1H-pyrrolo[2,3-c]pyridin-7-yl]-1-methyl-1,2,3,4-tetrahydroisoquinoline hydrochloride], inhibition was half-maximal at 82 nM (IC50). Under “[1-allyl-7-(3,4-dihydro-1H-isoquinolin-2-yl)-2,3-dimethyl-1H-pyrrolo[2,3-c]pyridin-5-yl]-methylamine hydrochloride [Example 887]” stands 9 nM; under `COc1cccc(Cn2c(C)c(C)c3cc(C(=O)N4CCOCC4)nc(N4CCc5ccccc5C4)c32)c1` [Example 780, [7-(3,4-dihydro-1H-isoquinolin-2-yl)-1-(3-methoxybenzyl)-2,3-dimethyl-1H-pyrrolo[2,3-c]pyridin-5-yl]-(morpholin-4-yl)-methanone hydrochloride], 125 nM. Under `C=CCn1c(C)c(C)c2ccnc(N3CCc4ccccc4C3)c21` [Example 494, 1-allyl-7-(1,2,3,4-tetrahydroisoquinolin-2-yl)-2,3-dimethyl-1H-pyrrolo[2,3-c]pyridine hydrobromide] stands 4 nM. The value for `Cc1[nH]c2c(N3CCc4ccccc4C3)nc(C(=O)N3CCN(C)CC3)cc2c1C` [Example 827, [7-(3,4-dihydro-1H-isoquinolin-2-yl)-2,3-dimethyl-1H-pyrrolo[2,3-c]pyridin-5-yl]-(4-methylpiperazin-1-yl)-methanone hydrochloride] was 77 nM; that for `C=CCn1c(C)c(C)c2ccnc(N3CCc4ccccc4C3)c21` [Example 491, 1-allyl-7-(1,2,3,4-tetrahydroisoquinolin-2-yl)-2,3-dimethyl-1H-pyrrolo[2,3-c]pyridine maleate] was 2 nM; that for `Cc1c(C)n(Cc2ccccc2)c2c(N3CCc4ccccc4C3)nc(C(=O)N3CCOCC3)cc12` [Example 769, [1-benzyl-7-(3,4-dihydro-1H-isoquinolin-2-yl)-2,3-dimethyl-1H-pyrrolo[2,3-c]pyridin-5-yl]-(morpholin-4-yl)-methanone hydrochloride] was 103 nM.

As for `Cc1c(C)n(Cc2cccc(Cl)c2)c2c(N3CCc4ccccc4C3)nc(C#N)cc12` [Example 689, 1-(3-chlorobenzyl)-7-(3,4-dihydro-1H-isoquinolin-2-yl)-2,3-dimethyl-1H-pyrrolo[2,3-c]pyridin-5-carbonitrile], the IC50 came out at 331 nM. The value for `Cc1ccc(Cn2c(C)c(C)c3ccnc(CN(C)c4ccc(F)cc4)c32)cc1` [Example 117, N-[2,3-dimethyl-1-(4-methylbenzyl)-1H-pyrrolo[2,3-c]pyridin-7-ylmethyl]-N-(4-fluorophenyl)-methylamine hydrochloride] was 46 nM.

The compound `Cc1c(C)n(Cc2cccc(Cl)c2)c2c(N3CCc4ccccc4C3)nc(C=O)cc12` [Example 863, 1-(3-chlorobenzyl)-7-(3,4-dihydro-1H-isoquinolin-2-yl)-2,3-dimethyl-1H-pyrrolo[2,3-c]pyridin-5-carbaldehyde] returned a 50% inhibitory concentration (IC50) of 109 nM. Under `Cc1c(C)n(Cc2ccc(Cl)cc2)c2c(CCc3ccccc3)nccc12` [Example 446, 1-(4-chlorobenzyl)-2,3-dimethyl-7-phenethyl-1H-pyrrolo[2,3-c]pyridine hydrochloride] stands 390 nM; under `Cc1cc2ccnc(N3CCc4ccccc4C3)c2n1Cc1cccc(F)c1` [Example 613, 2-[1-(3-fluorobenzyl)-2-methyl-1H-pyrrolo[2,3-c]pyridin-7-yl]-1,2,3,4-tetrahydroisoquinoline hydrochloride], 375 nM.

In turn, `Cc1c(C)n(Cc2cccc(Cl)c2)c2c(N3CCc4ccccc4C3)nc(C(=O)O)cc12` [Example 735, 1-(3-chlorobenzyl)-7-(3,4-dihydro-1H-isoquinolin-2-yl)-2,3-dimethyl-1H-pyrrolo[2,3-c]pyridin-5-carboxylic acid] showed an IC50 of 54 nM. The value for `Cc1c(C)n(Cc2ccccc2)c2c(CCc3ccccc3)nccc12` [Example 442, 1-benzyl-2,3-dimethyl-7-phenethyl-1H-pyrrolo[2,3-c]pyridine hydrochloride] was 100 nM; that for `CCn1c(C)c(C)c2cc(C(=O)N3CCC(CO)CC3)nc(N3CCc4ccccc4C3)c21` [Example 805, [7-(3,4-dihydro-1H-isoquinolin-2-yl)-1-ethyl-2,3-dimethyl-1H-pyrrolo[2,3-c]pyridin-5-yl]-(4-hydroxymethylpiperidin-1-yl)-methanone hydrochloride] was 31 nM; that for `C=CCn1c(C)c(C)c2cc(C(=O)NCCO)nc(N3CCc4ccccc4C3)c21` [Example 837, 1-allyl-7-(3,4-dihydro-1H-isoquinolin-2-yl)-2,3-dimethyl-N-(2-hydroxyethyl)-1H-pyrrolo[2,3-c]pyridin-5-carboxamide hydrochloride] was 29 nM.

Compound `Cc1c(C)n(Cc2ccccc2F)c2c(N3CCc4ccccc4C3)nccc12` [Example 483, 1-(2-fluorobenzyl)-7-(1,2,3,4-tetrahydroisoquinolin-2-yl)-2,3-dimethyl-1H-pyrrolo[2,3-c]pyridine hydrochloride] returned an IC50 of 330 nM. Consider `Cc1c(C)n(Cc2ccc(F)cc2)c2c(CN(C)c3ccc(F)cc3)nccc12` [Example 118, N-[1-(4-fluorobenzyl)-2,3-dimethyl-1H-pyrrolo[2,3-c]pyridin-7-ylmethyl]-N-(4-fluorophenyl)-methylamine hydrochloride], for which the IC50 turned out to be 332 nM.

In turn, `COc1cccc(Cn2c(C)c(C)c3ccnc(-c4ccc(C)cc4)c32)c1` [Example 278, 1-(3-methoxybenzyl)-2,3-dimethyl-7-(p-tolyl)-1H-pyrrolo[2,3-c]pyridine hydrochloride] yielded an IC50 of 390 nM. Under `C=CCn1c(C)c(C)c2ccnc(-c3ccc(F)cc3)c21` [Example 326, 1-allyl-7-(4-fluorophenyl)-2,3-dimethyl-1H-pyrrolo[2,3-c]pyridine hydrochloride] stands 306 nM; under `Cc1c(C)n(Cc2ccc3ccccc3c2)c2c(N3CCc4ccccc4C3)nccc12` [Example 502, 1-(naphthalen-2-ylmethyl)-7-(1,2,3,4-tetrahydroisoquinolin-2-yl)-2,3-dimethyl-1H-pyrrolo[2,3-c]pyridine hydrochloride], 300 nM; under `C#CCn1c(C)c(C)c2ccnc(-c3ccc(OC)cc3)c21` [Example 354, 7-(4-methoxyphenyl)-2,3-dimethyl-1-(prop-2-ynyl)-1H-pyrrolo[2,3-c]pyridine hydrochloride], 150 nM. `Cc1c(C)n(CC2CC2)c2c(CN(C)c3ccc(F)cc3)nccc12` [Example 112, N-(1-cyclopropylmethyl-2,3-dimethyl-1H-pyrrolo[2,3-c]pyridin-7-ylmethyl)-N-(4-fluorophenyl)-methylamine hydrochloride] showed an IC50 of 151 nM. Under `Cc1c(C)n(Cc2cccc(F)c2)c2c(N3CCc4ccccc4C3)nc(C#N)cc12` [Example 695, 7-(3,4-dihydro-1H-isoquinolin-2-yl)-1-(3-fluorobenzyl)-2,3-dimethyl-1H-pyrrolo[2,3-c]pyridin-5-carbonitrile] stands 481 nM; under `Cc1c(C)n(CC2CC2)c2c(N3CCc4ccccc4C3)nccc12` [Example 497, 1-cyclopropylmethyl-7-(1,2,3,4-tetrahydroisoquinolin-2-yl)-2,3-dimethyl-1H-pyrrolo[2,3-c]pyridine hydrochloride], 320 nM; under `C=Cc1ccc(-c2nccc3c(C)c(C)n(Cc4ccc5ccccc5c4)c23)cc1` [Example 257, 2,3-dimethyl-1-(naphthalen-2-ylmethyl)-7-(4-vinylphenyl)-1H-pyrrolo[2,3-c]pyridine hydrochloride], 270 nM. Under `COCCn1c(C)c(C)c2ccnc(N3CCc4ccccc4C3C3CC3)c21` (centres unmarked) [Example 571, 1-cyclopropyl-2-[1-(2-methoxyethyl)-2,3-dimethyl-1H-pyrrolo[2,3-c]pyridin-7-yl]-1,2,3,4-tetrahydroisoquinoline hydrochloride] stands 470 nM; under `CCn1c(C)c(C)c2ccnc(-c3ccc4ccccc4c3)c21` [Example 404, 1-ethyl-2,3-dimethyl-7-(naphthalen-2-yl)-1H-pyrrolo[2,3-c]pyridine hydrochloride], 95 nM. The value for `Cc1c(C)n(Cc2ccc(Cl)cc2)c2c(CN(C)c3ccc(F)cc3)nccc12` [Example 113, N-[1-(4-chlorobenzyl)-2,3-dimethyl-1H-pyrrolo[2,3-c]pyridin-7-ylmethyl]-N-(4-fluorophenyl)-methylamine hydrochloride] was 327 nM; that for `Cc1c(C)n(CC(C)C)c2c(N3CCc4ccccc4C3)nc(C(=O)N3CCNCC3)cc12` [Example 815, [7-(3,4-dihydro-1H-isoquinolin-2-yl)-1-isobutyl-2,3-dimethyl-1H-pyrrolo[2,3-c]pyridin-5-yl]-(piperazin-1-yl)-methanone hydrochloride] was 29 nM. `Cc1ccc(CNc2nccc3c(C)c(C)n(CC(C)C)c23)cc1` [Example 198, 1-isobutyl-2,3-dimethyl-7-(4-methylbenzylamino)-1H-pyrrolo[2,3-c]pyridine hydrochloride] displayed an IC50 of 64 nM. Compound `Cc1c(C)n(CC2CC2)c2c(CCc3ccccc3)nccc12` [Example 453, 1-cyclopropylmethyl-2,3-dimethyl-7-phenethyl-1H-pyrrolo[2,3-c]pyridine hydrochloride] yielded a concentration for half-maximal inhibition (IC50) of 340 nM. `Cc1c(C)n(Cc2cccc(F)c2)c2c(-c3ccc4ccccc4c3)nccc12` [Example 405, 1-(3-fluorobenzyl)-2,3-dimethyl-7-(naphthalen-2-yl)-1H-pyrrolo[2,3-c]pyridine hydrochloride]: it took 73 nM to reach half-maximal inhibition (IC50).
